The source of these data is patent US10221177B2 (HYDRA BIOSCIENCES, INC., priority 2014, dated 2019).

For one test, the target named is human TRPA1 (Homo sapiens (Human), UniProt O75762). The experiment in a line: In vitro inhibition of human TRPA1, whole cell patch configuration. To be noted: current activation 10 μM AITC, tested concentrations 320 pM to 3.2 μM, read-out: hTRPA1 IC50. The class given is cell-based. The essentials:
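Compound antagonism measured from voltage ramps (±100 or ±80 mV, 400 ms, every 4 s from −40 mV), analysed at −80 and 80 mV, or at constant −60 mV. HEPES-buffered NaCl bath, pH 7.4, EGTA or 2 mM Ca2+; temperature set by perfusion, within ±2° C; no junction-potential correction.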

Test [1] deals with CFA-induced cold hypersensitivity of the hind paw. Nature of the test: CFA-induced pain test, cold hypersensitivity (cold plate paw withdrawal latency). The class given is in vivo. To be noted: cold plate 1° C., solution in 4% DMSO, 5% Tween-80; for Average PWL Post-Treatment / PWL Change: 1-2 hour pre-treatment; for Average PWL Post-CFA: baseline before dosing. On the procedure: Embodiments of the invention may be efficacious in the treatment of inflammatory pain. Compounds of the invention were tested by the CFA-induced pain test method. Compounds were formulated as solutions in water with various solvents and excipients including dimethyl sulfoxide (DMSO), polyethylene glycol (15)-hydroxystearate (Solutol®, Sigma-Aldrich), caprylocaproyl macrogol-8 glyceride (Labrasol®, Sigma-Aldrich), polysorbate-80 (Tween®-80, Sigma-Aldrich), and polyoxyl 35 castor oil (Cremophor® EL, BASF Corp.); or suspensions in methylcellulose as indicated in Table 3 for oral delivery. Briefly, the hind paw was sensitized to cold temperature (allodynic) by administering 0.1 mL of Complete Freund's Adjuvant (CFA) to the right hind paw. Three days later, the time taken for the animal to lift its CFA-injected paw was recorded compared to its un-injected normal left hind paw. […] To avoid tissue damage the maximum cut-off time was 5 minutes. Animals that were allodynic (average PWL to the first three pain behaviors <150 seconds for the CFA-injected hind paw: ˜≥50% difference between the normal and CFA-injected paw) were included in the study and subsequently randomized across treatment groups. The following day, the animals were dosed orally under blinded conditions. Following the 1-2 hour pre-treatment time, the post-dose PWL readings were again taken. The efficacy of the drug treatment was assessed by comparing the PWL in the drug treatment animals to those animals that receive the vehicle. P values, when indicated, indicate significance compared Vehicle.

Test [2] has as its system formalin-induced pain behaviors in the rat. Nature of the test: Formalin-induced pain test (formalin model), duration of pain behaviors. The class given is in vivo. The essentials:
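Rats dosed orally with vehicle or compound (solutions with DMSO, Solutol, Labrasol, Tween-80, Cremophor EL, or methylcellulose suspensions) one hour before intraplantar injection of 50 μL 3% formalin into hind paw. Duration of pain behaviors counted by blinded observer; Phase I covers 0-5 min; comparison to vehicle.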

Setting [3] is: 1 mg/kg PO, 25% Cremophor EL, and 66% water.
Where [4] appears, read: 3 mg/kg PO, 25% Cremophor EL, and 66% water.
Where [5] appears, read: 10 mg/kg PO, 25% Cremophor EL, and 66% water.
Setting [6] is: 1 mg/kg PO one hour prior to formalin, solution in 4% DMSO, 5% Tween-80, 25% Cremophor EL, 66% water.
Setting [7] is: 1 mg/kg PO one hour prior to formalin, solution in 8% DMSO and 92% Labrasol.
Setting [8] is: 3 mg/kg PO one hour prior to formalin, solution in 4% DMSO, 5% Tween-80, 25% Cremophor EL, 66% water.
Where [9] appears, read: 3 mg/kg PO one hour prior to formalin, solution in 8% DMSO and 92% Labrasol.
Setting [10] is: 10 mg/kg PO one hour prior to formalin, solution in 4% DMSO, 5% Tween-80, 25% Cremophor EL, 66% water.
[11] abbreviates: 10 mg/kg PO one hour prior to formalin, solution in 8% DMSO and 92% Labrasol.
The mark [12] stands for this setting: 30 mg/kg PO one hour prior to formalin, solution in 8% DMSO and 92% Labrasol.
The mark [13] stands for this setting: 0.3 mg/kg PO, 20% Cremophor EL, and 71% water.
Where [14] appears, read: 1 mg/kg PO, 20% Cremophor EL, and 71% water.
Setting [15] is: 3 mg/kg PO, 20% Cremophor EL, and 71% water.
Where [16] appears, read: group 0.3 mg/kg PO, 20% Cremophor EL, and 71% water.
[17] abbreviates: group 1 mg/kg PO, 20% Cremophor EL, and 71% water.
The mark [18] stands for this setting: group 3 mg/kg PO, 20% Cremophor EL, and 71% water.
Where [19] appears, read: 1 mg/kg PO one hour prior to formalin, solution in 4% DMSO, 5% Tween-80, 20% Cremophor EL, 71% water.
Setting [20] is: 3 mg/kg PO one hour prior to formalin, solution in 4% DMSO, 5% Tween-80, 20% Cremophor EL, 71% water.
Where [21] appears, read: 10 mg/kg PO one hour prior to formalin, solution in 4% DMSO, 5% Tween-80, 20% Cremophor EL, 71% water.

“And” between values parts separate entries of the source, which are not always exact repeats. Identical values can stand only once.

Sequence of human TRPA1 (O75762 whole entry, the tested form may be a part): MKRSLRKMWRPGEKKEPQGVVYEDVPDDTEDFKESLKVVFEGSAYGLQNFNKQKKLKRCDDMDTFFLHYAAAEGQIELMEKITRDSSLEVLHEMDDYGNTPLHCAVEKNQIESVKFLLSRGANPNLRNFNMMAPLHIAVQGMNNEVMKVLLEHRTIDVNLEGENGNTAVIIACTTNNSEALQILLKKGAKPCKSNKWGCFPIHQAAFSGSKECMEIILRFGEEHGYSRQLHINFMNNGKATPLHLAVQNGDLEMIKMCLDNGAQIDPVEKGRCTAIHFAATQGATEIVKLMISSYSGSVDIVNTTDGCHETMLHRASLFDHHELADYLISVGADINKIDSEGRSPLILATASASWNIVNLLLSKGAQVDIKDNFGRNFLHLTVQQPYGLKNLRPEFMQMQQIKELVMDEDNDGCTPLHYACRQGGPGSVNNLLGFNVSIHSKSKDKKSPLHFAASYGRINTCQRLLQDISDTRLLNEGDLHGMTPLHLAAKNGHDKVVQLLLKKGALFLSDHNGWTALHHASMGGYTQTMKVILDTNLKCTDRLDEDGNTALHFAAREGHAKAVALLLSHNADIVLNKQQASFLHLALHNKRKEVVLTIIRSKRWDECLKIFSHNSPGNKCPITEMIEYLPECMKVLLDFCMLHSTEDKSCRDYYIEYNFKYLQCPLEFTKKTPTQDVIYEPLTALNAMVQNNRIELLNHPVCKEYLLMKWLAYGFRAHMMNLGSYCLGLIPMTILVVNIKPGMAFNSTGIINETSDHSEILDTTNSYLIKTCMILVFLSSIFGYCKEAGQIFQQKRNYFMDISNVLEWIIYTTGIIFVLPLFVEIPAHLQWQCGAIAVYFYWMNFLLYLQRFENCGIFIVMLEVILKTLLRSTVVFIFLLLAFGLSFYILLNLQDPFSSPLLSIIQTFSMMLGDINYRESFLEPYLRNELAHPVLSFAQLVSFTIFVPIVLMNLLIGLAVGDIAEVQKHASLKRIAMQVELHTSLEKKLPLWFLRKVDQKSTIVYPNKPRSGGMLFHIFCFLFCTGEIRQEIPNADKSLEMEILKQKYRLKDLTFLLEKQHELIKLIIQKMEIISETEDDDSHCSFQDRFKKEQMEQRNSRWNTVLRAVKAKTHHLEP

With `CC(=O)Cn1c(=O)c2c(ncn2[C@@H](C)C(=O)Nc2csc(-c3cnc(N4CC5CC5C4)nc3)n2)n(C)c1=O` (stereo partly drawn) [Compound 153, (2S)—N-(2-(2-(3-azabicyclo[3.1.0]hexan-3-yl)pyrimidin-5-yl)thiazol-4-yl)-2-(3-methyl-2,6-dioxo-1-(2-oxopropyl)-2,3-dihydro-1H-purin-7(6H)-yl)propanamide], at human TRPA1, the IC50 (as a rule, the midpoint of a concentration-inhibition curve) is 2 nM. The “Average PWL Post-Treatment” value in test [1] (setting [3]) is on record as 178.1; in test [1] (setting [4]), 223.6; in test [1] (setting [5]), 247.1. For the same compound, the “PWL Change” value worked out at 85.6 s in test [1] (setting [3]), 130.8 s in test [1] (setting [4]) and 154.3 s in test [1] (setting [5]). Moreover, the “Average PWL Post-CFA” value in test [1] (group 1 mg/kg PO, 25% Cremophor EL, and 66% water) is 92.5; in test [1] (group 3 mg/kg PO, 25% Cremophor EL, and 66% water), 92.8; in test [1] (group 10 mg/kg PO, 25% Cremophor EL, and 66% water) it was 92.7. The “Duration (0-2 Minutes) Average” value in test [2] (setting [6]) was determined as 71.4 s; in test [2] (setting [7]), 84.5 s; in test [2] (setting [8]) it was 81.5 s; in test [2] (setting [9]), 86.4 s; in test [2] (setting [10]), 50.1 s; in test [2] (setting [11]) it was 87.9 s. The “Duration (0-2 Minutes) Average” value in test [2] (setting [12]) was 31.9 s and 52.8 s. The “Duration (0-5 Minutes) Average” value in test [2] (setting [6]) came out at 164.6 s; in test [2] (setting [7]) it was 172.5 s; in test [2] (setting [8]) it was 216.9 s; in test [2] (setting [9]), 198.8 s; in test [2] (setting [10]) it was 160.3 s; in test [2] (setting [11]), 214.6 s. Further, the “Duration (0-5 Minutes) Average” value in test [2] (setting [12]) was 173.1 s and 173.4 s.

Take `CC(=O)Cn1c(=O)c2c(ncn2[C@@H](C)C(=O)Nc2ccnc(-c3cnc(N4CC5C(C4)C5(F)F)nc3)n2)n(C)c1=O` (stereo partly drawn) [Compound 61, (2S)—N-(2′-(6,6-difluoro-3-azabicyclo[3.1.0]hexan-3-yl)-[2,5′-bipyrimidin]-4-yl)-2-(3-methyl-2,6-dioxo-1-(2-oxopropyl)-2,3-dihydro-1H-purin-7(6H)-yl)propanamide]: on human TRPA1, the IC50 came out at 8 nM. Also, the entries for the “Average PWL Post-Treatment” value in test [1] (setting [13]), in test [1] (setting [14]) and in test [1] (setting [15]) were 157.1, 235.4 and 278.5, respectively. Moreover, the “PWL Change” value in test [1] (setting [13]) is 60.9 s; in test [1] (setting [14]), 139.4 s; in test [1] (setting [15]) it was 182.7 s. For the same compound, the “Average PWL Post-CFA” value is listed as 96.2 in test [1] (setting [16]), 96.0 in test [1] (setting [17]) and 95.8 in test [1] (setting [18]). In addition, the entries for the “Duration (0-2 Minutes) Average” value in test [2] (setting [19]), in test [2] (setting [20]) and in test [2] (setting [21]) were 89.4 s, 90.3 s and 52.8 s, respectively. For the same compound, the “Duration (0-5 Minutes) Average” value in test [2] (setting [19]) stood at 149.3 s; in test [2] (setting [20]) it was 152.3 s; in test [2] (setting [21]), 120.0 s.

Take `Cc1noc(Cn2c(=O)c3c(ncn3[C@@H](C)C(=O)Nc3cncc(-c4cnc(C(F)(F)F)nc4)n3)n(C)c2=O)n1` [Compound 160, (S)-2-(3-methyl-1-((3-methyl-1,2,4-oxadiazol-5-yl)methyl)-2,6-dioxo-2,3-dihydro-1H-purin-7(6H)-yl)-N-(6-(2-(trifluoromethyl)pyrimidin-5-yl)pyrazin-2-yl)propanamide]: the IC50 at human TRPA1 was 20 nM. The “Average PWL Post-Treatment” value in test [1] (setting [13]) worked out at 173.0; in test [1] (setting [14]) it was 269.6; in test [1] (setting [15]) it was 253.6. Moreover, the “PWL Change” value in test [1] (setting [13]) is on record as 64.7 s; in test [1] (setting [14]), 161.5 s; in test [1] (setting [15]), 146.2 s. The “Average PWL Post-CFA” value was determined as 108.2 in test [1] (setting [16]), 108.1 in test [1] (setting [17]) and 107.5 in test [1] (setting [18]). Moreover, the “Duration (0-2 Minutes) Average” value was determined as 68.6 s in test [2] (setting [19]), 78.1 s in test [2] (setting [20]) and 42.5 s in test [2] (setting [21]). The “Duration (0-5 Minutes) Average” value in test [2] (setting [19]) stood at 167.3 s; in test [2] (setting [20]), 232.0 s; in test [2] (setting [21]), 150.4 s.

As to `CC(=O)Cn1c(=O)c2c(ncn2[C@@H](C)C(=O)Nc2cccc(-c3cnc(C)c(C(F)(F)F)c3)n2)n(C)c1=O` [Compound 97, (S)-2-(3-methyl-2,6-dioxo-1-(2-oxopropyl)-2,3-dihydro-1H-purin-7(6H)-yl)-N-(6′-methyl-5′-(trifluoromethyl)-[2,3′-bipyridin]-6-yl)propanamide], the IC50 on human TRPA1 worked out at 5 nM. For the same compound, the results for the “Average PWL Post-Treatment” value in test [1] (setting [13]), in test [1] (setting [14]) and in test [1] (setting [15]) were 194.7, 262.7 and 260.8, respectively. Further, the figures for the “PWL Change” value in test [1] (setting [13]), in test [1] (setting [14]) and in test [1] (setting [15]) were 77.3 s, 149.8 s and 157.3 s, respectively. Also, the results for the “Average PWL Post-CFA” value in test [1] (setting [16]), in test [1] (setting [17]) and in test [1] (setting [18]) were 117.3, 112.9 and 103.5, respectively. Besides, the “Duration (0-2 Minutes) Average” value in test [2] (setting [19]) is 69.3 s; in test [2] (setting [20]), 78.5 s; in test [2] (setting [21]) it was 56.8 s. Also, the “Duration (0-5 Minutes) Average” value in test [2] (setting [19]) came to 162.4 s; in test [2] (setting [20]), 175.3 s; in test [2] (setting [21]), 185.4 s.

Regarding `CC(=O)Cn1c(=O)c2c(ncn2[C@@H](C)C(=O)Nc2cccc(-c3cnc(N4CC5C(C4)C5(F)F)nc3)n2)n(C)c1=O` (stereo partly drawn) [Compound 25, (2S)—N-(6-(2-(6,6-difluoro-3-azabicyclo[3.1.0]hexan-3-yl)pyrimidin-5-yl)pyridin-2-yl)-2-(3-methyl-2,6-dioxo-1-(2-oxopropyl)-2,3-dihydro-1H-purin-7(6H)-yl)propanamide], on human TRPA1, the half-maximal inhibitory concentration (IC50) worked out at 4 nM. Moreover, the “Average PWL Post-Treatment” value in test [1] (setting [13]) is on record as 170.2; in test [1] (setting [14]) it was 224.8; in test [1] (setting [15]), 259.9. Moreover, the “PWL Change” value was 65.2 s in test [1] (setting [13]), 119.7 s in test [1] (setting [14]) and 154.9 s in test [1] (setting [15]). Moreover, the “Average PWL Post-CFA” value in test [1] (setting [16]) is recorded as 105.0; in test [1] (setting [17]) it was 105.1; in test [1] (setting [18]), 105.1. For the same compound, the “Duration (0-2 Minutes) Average” value in test [2] (setting [19]) was 87.8 s; in test [2] (setting [20]), 22.8 s; in test [2] (setting [21]), 29.1 s. The “Duration (0-5 Minutes) Average” value in test [2] (setting [19]) turned out to be 190.1 s; in test [2] (setting [20]) it was 98.3 s; in test [2] (setting [21]), 146.0 s.
